Experimental data from ChEMBL document CHEMBL1201862, “PubChem BioAssay data set” (2004).
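Method: 48-hour compound exposure of cells in 96-well plates, five concentrations, linear interpolation of endpoints. GI50 is the concentration that inhibits growth by half.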 Calls of active or inactive are those of the source. No stated cut-off is given here; in the data, active = GI50 up to about 1.1 µM and inactive = higher.

How the values were obtained:
Assay in all cases: NCI-60 cell line screen, 48 h
[1] = system: EKVX
[2] = system: NCI-H23
[3] = system: SK-MEL-5
[4] = system: T47D
[5] = system: MDA-N
[6] = system: UO-31
[7] = system: RXF 393
[8] = system: SNB-75
[9] = system: SF-268
[10] = system: PC-3
[11] = system: U-251
[12] = system: OVCAR-3
[13] = system: A549
[14] = system: K562
[15] = system: HCT-15
[16] = system: RPMI-8226
[17] = system: CCRF-CEM
[18] = system: SW-620
[19] = system: IGROV-1
[20] = system: UACC-257
[21] = system: SF-539
[22] = system: Hs-578T
[23] = system: NCI/ADR-RES
[24] = system: SNB-19
[25] = system: MOLT-4
[26] = system: OVCAR-5
[27] = system: TK-10
[28] = system: MCF7
[29] = system: 786-0
[30] = system: NCI-H226
[31] = system: HCT-116
[32] = system: UACC-62
[33] = system: OVCAR-4
[34] = system: A498
[35] = system: ACHN
[36] = system: DU-145
[37] = system: COLO 205
[38] = system: BT-549
[39] = system: MDA-MB-435
[40] = system: SR
[41] = system: SK-OV-3
[42] = system: HOP-92
[43] = system: SK-MEL-28
[44] = system: HT-29
[45] = system: Malme-3M
[46] = system: M14
[47] = system: CAKI-1
[48] = system: SF-295
[49] = system: NCI-H460
[50] = system: NCI-H522
[51] = system: KM12
[52] = system: SN12C
[53] = system: SK-MEL-2
[54] = system: HOP-62
[55] = system: MDA-MB-231
[56] = system: LOX IMVI
[57] = system: OVCAR-8

Compound: O=C(N1CCOCC1)C1(c2ccccc2)CCNCC1
- GI50 [1]: > 100 µM (inactive)
- GI50 [2]: > 100 µM (inactive)
- GI50 [3]: > 100 µM (inactive)
- GI50 [4]: > 100 µM (inactive)
- GI50 [5]: > 100 µM (inactive)
- GI50 [6]: > 100 µM (inactive)
- GI50 [7]: > 100 µM (inactive)
- GI50 [8]: > 100 µM (inactive)
- GI50 [9]: > 100 µM (inactive)
- GI50 [10]: > 100 µM (inactive)
- GI50 [11]: > 100 µM (inactive)
- GI50 [12]: > 100 µM (inactive)
- GI50 [13]: > 100 µM (inactive)
- GI50 [14]: > 100 µM (inactive)
- GI50 [15]: > 100 µM
- GI50 [16]: > 100 µM (inactive)
- GI50 [17]: 0.0488 µM (active)
- GI50 [18]: > 100 µM (inactive)
- GI50 [19]: > 100 µM (inactive)
- GI50 [20]: > 100 µM (inactive)
- GI50 [21]: > 100 µM (inactive)
- GI50 [22]: > 100 µM (inactive)
- GI50 [23]: > 100 µM (inactive)
- GI50 [24]: > 100 µM (inactive)
- GI50 [25]: > 100 µM (inactive)
- GI50 [26]: > 100 µM (inactive)
- GI50 [27]: > 100 µM (inactive)
- GI50 [28]: > 100 µM (inactive)
- GI50 [29]: > 100 µM (inactive)
- GI50 [30]: > 100 µM (inactive)
- GI50 [31]: > 100 µM (inactive)
- GI50 [32]: > 100 µM (inactive)
- GI50 [33]: > 100 µM (inactive)
- GI50 [34]: > 100 µM (inactive)
- GI50 [35]: > 100 µM (inactive)
- GI50 [36]: > 100 µM (inactive)
- GI50 [37]: > 100 µM (inactive)
- GI50 [38]: > 100 µM (inactive)
- GI50 [39]: > 100 µM (inactive)
- GI50 [40]: > 100 µM (inactive)
- GI50 [41]: > 100 µM (inactive)
- GI50 [42]: > 100 µM (inactive)
- GI50 [43]: > 100 µM (inactive)
- GI50 [44]: > 100 µM (inactive)
- GI50 [45]: > 100 µM (inactive)
- GI50 [46]: > 100 µM (inactive)
- GI50 [47]: > 100 µM (inactive)
- GI50 [48]: > 100 µM (inactive)
- GI50 [49]: > 100 µM (inactive)
- GI50 [50]: > 100 µM (inactive)
- GI50 [51]: > 100 µM (inactive)
- GI50 [52]: > 100 µM (inactive)
- GI50 [53]: > 100 µM (inactive)
- GI50 [54]: > 100 µM (inactive)
- GI50 [55]: > 100 µM (inactive)
- GI50 [56]: > 100 µM (inactive)
- GI50 [57]: > 100 µM (inactive)
